Experimental data as given in patent US20100068197A1, “PHARMACEUTICAL COMPOUNDS AS INHIBITORS OF CELL PROLIFERATION AND THE USE THEREOF” (Myriad Pharmaceuticals, Inc., priority 2008, published 2010).

Key:
[1] = system: P388 murine leukemia cell line; assay: P388 cytotoxicity, cellular viability by ATP-Lite; assay type: cell-based; conditions: compound concentration required to inhibit growth by 50%, intracellular ATP
Experimental: A P388 murine leukemia cell line was obtained from NCI, Frederick, Md. P388 cells were cultured in RPMI-1640 supplemented with 10% fetal bovine serum, 2 mM Glutamax, 1 mM sodium pyruvate, 0.1 mM non-essential amino acids and 10 mM HEPES. Cells were grown at 37° C. in a humidified 5% CO2 atmosphere. Exponentially growing P388 cells were plated at 5,000 cells/well in a 96-well flat-bottomed microtiter plate (Corning, Costar #3595). […] Cellular viability was determined 72 hours later by measuring intracellular ATP with ATP-Lite assay system. The effect of compounds on cell viability was calculated by comparing the ATP levels of cells exposed to test compound with those of cells exposed to DMSO. A semi-log plot of relative ATP levels versus compound concentration was used to calculate the compound concentration required to inhibit growth by 50% (IC50). Data was analyzed by Prism software (GraphPad; San Diego, Calif.) by fitting it to a sigmoidal dose response curve.

[2] = system: P388/ADR cell lines (overexpress the multidrug resistance pump MDR-1); assay: Multidrug resistant cell assay, cell viability by ATP-lite; assay type: cell-based, murine
Source text: Cytotoxicity of compounds in multidrug resistant cells can be determined by administering compounds to cell lines that overexpress the multidrug resistance pump MDR-1 and determining the viability of the cell lines. P388/ADR cell lines are known to overexpress the multidrug resistance pump MDR-1 (also known as P-glycoprotein-1; Pgp-1).
P388/ADR cell lines are obtained from American Type Culture Collection (Manassas, Va.) and maintained in RPMI-1640 media supplemented with 10% FCS, 10 units/mL penicillin and streptomycin, 2 mM Glutamax and 1 mM sodium pyruvate (Invitrogen Corporation, Carlsbad, Calif.). For compound testing, cells are plated in 96 well dishes at a concentration of 1.5×10^4 cells/well. Cells are allowed to adhere to the plate overnight and then incubated with compounds at final concentrations ranging from 0.13 nM to 10 μM for 72 hours. Cell viability is then assessed using the ATP-lite reagent (Perkin Elmer, Foster City, Calif.). Plates are read on a Wallac Topcount luminescence reader (Perkin Elmer, Foster City, Calif.) and the results graphed in Prism software (Graphpad Software, Inc., San Diego, Calif.). Non-linear regression with variable slope analysis is performed to obtain IC50 concentration values.

[3] = Mus musculus, 72 h, multidrug resistant cells overexpressing MDR-1
[4] = multidrug resistant cells overexpressing MDR-1, 72 hours

Row | SMILES | IC50 ([1]; Mus musculus, P388, 72 h) [µM] | IC50 [2, 3] [µM] | IC50 ([1]; 72 hours) [µM] | IC50 [2, 4] [µM]
1 | COc1ccc(N(C)c2nc(CNC(=O)[C@H](C)NC(=O)OC(C)(C)C)nc3ccccc23)cc1 [Example 50, [(S)-1-({4-[(4-Methoxy-phenyl)-methyl-amino]-quinazolin-2-ylmethyl}-carbamoyl)-ethyl]-carbamic acid tent-butyl ester] | 0.18 | 0.19 | – | –
2 | COc1ccc(N(C)c2nc(CNC(=O)[C@@H](C)NC(=O)OC(C)(C)C)nc3ccccc23)cc1 [Example 53, [(R)-1-({4-[(4-Methoxy-phenyl)-methyl-amino]-quinazolin-2-ylmethyl}-carbamoyl)-ethyl]-carbamic acid tert-butyl ester] | 0.457 | 0.68 | – | –
3 | COc1ccc(N(C)c2nc(CNC(=O)OCc3ccccc3)nc3ccccc23)cc1 [Example 47, {4-[(4-Methoxy-phenyl)-methyl-amino]-quinazolin-2-ylmethyl}-carbamic acid benzyl ester] | 0.023 | 0.027 | – | –
4 | COc1ccc(N(C)c2nc(NCCOC(=O)[C@H](N)Cc3c[nH]c4ccccc34)nc3ccccc23)cc1 [Example 35, (R)-2-Amino-3-(1H-indol-3-yl)-propionic acid 2-{4-[(4-methoxy-phenyl)-methyl-amino]-quinazolin-2-ylamino}-ethyl ester] | 0.22 | 0.24 | – | –
5 | COc1ccc(N(C)c2nc(N[C@@H](C)C(=O)O)nc3ccccc23)cc1 [Example 36, (S)-2-{4-[(4-Methoxy-phenyl)-methyl-amino]-quinazolin-2-ylamino}-propionic acid] | 0.78 | 0.7 | – | –
6 | COC(=O)NCCNc1nc(N(C)c2ccc(OC)cc2)c2ccccc2n1 [Example 38, (2-{4-[(4-Methoxy-phenyl)-methyl-amino]-quinazolin-2-ylamino}-ethyl)-carbamic acid methyl ester] | 0.019 | 0.053 | – | –
7 | COc1ccc(N(C)c2nc(CNC(=O)[C@H](CC(N)=O)NC(=O)OC(C)(C)C)nc3ccccc23)cc1 [Example 51, [(S)-2-Carbamoyl-1-({4-[(4-methoxy-phenyl)-methyl-amino]-quinazolin-2-ylmethyl}-carbamoyl)-ethyl]-carbamic acid tent-butyl ester] | 0.62 | 0.97 | – | –
8 | COC(=O)NCCNc1nc(N(C)c2ccc(OC)cc2)c2cc(C)ccc2n1 [Example 30, (2-{4-[(4-Methoxy-phenyl)-methyl-amino]-6-methyl-quinazolin-2-ylamino}-ethyl)-carbamic acid methyl ester] | 0.085 | 0.16 | – | –
9 | COc1ccc(N(C)c2nc(CNS(=O)(=O)c3ccc(OC)cc3)nc3ccccc23)cc1 [Example 45, 4-Methoxy-N-{4-[(4-methoxy-phenyl)-methyl-amino]-quinazolin-2-ylmethyl}-benzenesulfonamide] | 1.7 | 1.8 | – | –
10 | COCCOCCOc1nc(N(C)c2ccc(OC)cc2)c2ccccc2n1 [Example 1, {2-[2-(2-Methoxy-ethoxy)-ethoxy]-quinazolin-4-yl}-(4-methoxy-phenyl)-methyl-amine] | 0.49 | 0.58 | – | –
11 | COc1ccc(N(C)c2nc(CNC(=O)Oc3ccccc3)nc3ccc(F)cc23)cc1 [Example 43, {6-Fluoro-4-[(4-methoxy-phenyl)-methyl-amino]-quinazolin-2-ylmethyl}-carbamic acid phenyl ester] | 0.0072 | 0.0057 | – | –
12 | COc1ccc(N(C)c2nc(NCCNC(C)=O)nc3ccccc23)cc1OC [Example 20, N-(2-{4-[(3,4-Dimethoxy-phenyl)-methyl-amino]-quinazolin-2-ylamino}-ethyl)-acetamide] | 1.7 | 9.4 | 1.1 | –
13 | COc1ccc(N(C)c2nc(NCCNC(=O)OC(C)(C)C)nc3ccc(OC)cc23)cc1 [Example 16, (2-{6-Methoxy-4-[(4-methoxy-phenyl)-methyl-amino]-quinazolin-2-ylamino}-ethyl)-carbamic acid tent-butyl ester] | 4 | 3.4 | 2.4 | 2
14 | COc1ccc(N(C)c2nc(NCCOC(=O)[C@@H](N)CC(N)=O)nc3ccccc23)cc1 [Example 33, (S)-2-Amino-succinamic acid 2-{4-[(4-methoxy-phenyl)-methyl-amino]-quinazolin-2-ylamino}-ethyl ester] | 0.017 | 0.018 | – | –
15 | COc1ccc(N(C)c2nc(NCCCN(C)c3nc(N(C)c4ccc(OC)cc4)c4ccccc4n3)nc3ccccc23)cc1 [Example 48, 3-{4-[(4-Methoxy-phenyl)-methyl-amino]-quinazolin-2-ylamino}-1-({4-[(4-methoxy-phenyl)-methyl-amino]-quinazolin-2-yl}-methyl-amino)-propane] | 0.07 | 0.083 | – | –
16 | COc1ccc(N(C)c2nc(NCCNC(=O)CNC(=O)OC(C)(C)C)nc3ccccc23)cc1 [Example 31, [(2-{4-[(4-Methoxy-phenyl)-methyl-amino]-quinazolin-2-ylamino}-ethylcarbamoyl)-methyl]-carbamic acid tert-butyl ester] | 1.3 | 1.1 | – | –
17 | COc1ccc(N(C)c2nc(N[C@@H](C)[C@H](O)c3ccccc3)nc3ccccc23)cc1 [Example 24, (1R,2S)-2-{4-[(4-Methoxy-phenyl)-methyl-amino]-quinazolin-2-ylamino}-1-phenyl-propan-1-ol] | 1.6 | 1.7 | – | –
18 | COCCOCCOCCOc1nc(N(C)c2ccc(OC)cc2)c2ccccc2n1 [Example 2, (2-{2-[2-(2-Methoxy-ethoxy)-ethoxy]-ethoxy}-quinazolin-4-yl)-(4-methoxy-phenyl)-methyl-amine] | 0.065 | 0.074 | – | –
19 | COc1ccc(N(C)c2nc(CNC(=O)OC(C)OC(=O)C(C)C)nc3ccccc23)cc1 (stereo not drawn) [Example 49, Isobutyric acid 1-{4-[(4-methoxy-phenyl)-methyl-amino]-quinazolin-2-ylmethylcarbamoyloxy}-ethyl ester] | 0.0055 | 0.013 | – | –
20 | COc1ccc(N(C)c2nc(NCCOCCOCCN)nc3ccccc23)cc1 [Example 3, N^2-{2-[2-(2-Amino-ethoxy)-ethoxy]-ethyl}-N^4-(4-methoxy-phenyl)-N^4-methyl-quinazoline-2,4-diamine] | 1.4 | 2 | – | –
21 | COCCOCCOC(=O)OCCNc1nc(N(C)c2ccc(OC)cc2)c2ccccc2n1 [Example 8, Carbonic acid 2-(2-methoxy-ethoxy)-ethyl ester 2-{4-[(4-methoxy-phenyl)-methyl-amino]-quinazolin-2-ylamino}-ethyl ester] | 0.025 | 0.03 | – | –
22 | COC(=O)NCCNc1nc(N(C)c2ccc(OC)c(OC)c2)c2ccccc2n1 [Example 21, (2-{4-[(3,4-Dimethoxy-phenyl)-methyl-amino]-quinazolin-2-ylamino}-ethyl)-carbamic acid methyl ester] | 0.12 | 0.19 | 0.064 | 0.15
23 | COc1ccc(N(C)c2nc(NCCOP(=O)(O)OC(C)(C)C)nc3ccccc23)cc1 [Example 12, Phosphoric acid tent-butyl ester 2-{4-[(4-methoxy-phenyl)-methyl-amino]-quinazolin-2-ylamino}-ethyl ester] | 3.1 | 7.8 | – | –
24 | COc1ccc(N(C)c2nc(NCCNC(N)=O)nc3ccc(OC)cc23)cc1 [Example 22, (2-{6-Methoxy-4-[(4-methoxy-phenyl)-methyl-amino]-quinazolin-2-ylamino}-ethyl)-urea] | 9.3 | – | – | –
25 | COc1ccc(N(C)c2nc(NCCOP(=O)(OC(C)(C)C)OC(C)(C)C)nc3ccccc23)cc1 [Example 10, Phosphoric acid di-tent-butyl ester 2-{4-[(4-methoxy-phenyl)-methyl-amino]-quinazolin-2-ylamino}-ethyl ester] | – | 0.38 | – | –
26 | COc1ccc(N(C)c2nc(N(CCNC(C)=O)C(C)=O)nc3ccccc23)cc1 [Example 39, N-[2-(Acetyl-{4-[(4-methoxy-phenyl)-methyl-amino]-quinazolin-2-yl}-amino)-ethyl]-acetamide] | 3.8 | – | – | –
27 | COc1ccc(N(C)c2nc(OCCN3CCN(CCO)CC3)nc3ccccc23)cc1 [Example 5, 2-[4-(2-{4-[(4-Methoxy-phenyl)-methyl-amino]-quinazolin-2-yloxy}-ethyl)-piperazin-1-yl]-ethanol] | 3.6 | – | – | –
28 | COc1ccc(N(C)c2nc(NCCNC(C)=O)nc3ccc(C)cc23)cc1 [Example 18, N-(2-{4-[(4-Methoxy-phenyl)-methyl-amino]-6-methyl-quinazolin-2-ylamino}-ethyl)-acetamide] | – | 2.5 | – | 1.4
